Data from the NIST ThermoML archive (doi:10.1007/s10765-011-0978-y).

Settings: Fluid (supercritical or subcritical phases), Falling or rolling sphere viscometry

FCC(F)(F)F [1,1,1,2-tetrafluoroethane]
viscosity [mPa·s]
Settings	10000 kPa	25000 kPa	50000 kPa	100000 kPa	150000 kPa	200000 kPa	250000 kPa	300000 kPa	350000 kPa	400000 kPa
293.15 K	0.255	0.3008	0.3631	0.5045	0.6605	0.8252	–	–	–	–
298.15 K	0.2368	0.2795	0.3435	0.4988	0.6459	0.819	0.9773	–	–	–
313.15 K	0.207	0.2461	0.3127	0.4302	0.5758	0.7155	0.8952	1.069	1.25	1.446
323.15 K	0.1805	0.2229	0.2852	0.3946	0.502	0.6252	0.7651	0.914	–	–
348.15 K	0.1405	0.1783	0.2343	0.3327	0.43	0.5368	0.6421	0.7647	0.8894	1.04
373.15 K	–	0.1531	0.2038	0.2931	0.3764	0.4649	0.5564	0.6468	0.7557	0.8715
398.15 K	–	–	0.1725	0.2544	0.3243	–	–	–	–	–
438.15 K	–	–	0.1458	0.2131	0.2789	0.3408	0.3977	0.4612	–	–
